Test results reported in paper PMC7873226, “Molecular mechanism and structural basis of small-molecule modulation of the gating of acid-sensing ion channel 1” (Communications Biology, 2021).

Key:
rat ASIC1a [1] = molecular target: T1, rat ASIC1a (Rattus norvegicus, UniProt P55926); test: Whole-cell patch clamp: inhibition of acid-induced current in CHO cells stably expressing rat ASIC1a; assay type: cell-based; conditions: 30 µM
T1 construct: expressed in transfected cells
T1 sequence (P55926 1-526): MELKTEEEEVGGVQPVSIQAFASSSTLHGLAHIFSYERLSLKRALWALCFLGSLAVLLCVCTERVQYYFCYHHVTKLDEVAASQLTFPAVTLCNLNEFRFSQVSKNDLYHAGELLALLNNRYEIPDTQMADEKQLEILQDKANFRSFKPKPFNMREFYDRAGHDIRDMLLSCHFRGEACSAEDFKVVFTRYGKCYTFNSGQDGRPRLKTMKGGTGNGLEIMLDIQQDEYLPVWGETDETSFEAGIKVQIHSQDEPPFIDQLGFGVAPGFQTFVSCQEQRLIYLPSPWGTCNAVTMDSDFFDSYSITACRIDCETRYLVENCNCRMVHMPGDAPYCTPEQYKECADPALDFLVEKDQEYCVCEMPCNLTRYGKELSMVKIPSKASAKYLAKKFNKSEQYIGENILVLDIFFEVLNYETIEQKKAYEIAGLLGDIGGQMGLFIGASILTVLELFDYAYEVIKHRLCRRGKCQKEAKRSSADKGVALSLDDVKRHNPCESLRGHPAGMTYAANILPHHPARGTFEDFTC
Description: (§1) Chinese Hamster Ovary (CHO) cells stably expressing rat ASIC1a were cultured in Ham’s F12, supplemented with 10% FBS, 1% penicillin–streptomycin and 500 µg/mL G418 and incubated at 37 °C with 5% CO2. Transient transfections of rASIC1a and cASIC1 wild-type or mutant channels in CHO cells were performed with Lipofectamine 3000 (Thermo Fisher Scientific) according to the manufacturer’s recommendations. The green fluorescent protein (GFP) cDNA (at 1/10 the amount of channel cDNA) was co-transfected with channel cDNA to aid the identification of transfected cells under the microscope in patch clamp experiments. All cDNAs were sequence verified.
(§2) Cells were freshly dissociated with CellStripper (Corning) and dispersed in a chamber on the stage of an inverted microscope. Upon formation of the whole-cell conformation, the cell was lifted from the bottom of the chamber and placed at the tip of a tubing perfusing an extracellular solution containing (in mM): 149 NaCl, 2 CaCl2, 4 KCl, 1 MgCl2, 5 glucose, 10 HEPES, pH 7.4, 310 mOsm/L. Extracellular solutions at more basic or acidic pHs were made by titrating the above pH 7.4 solution with NaOH or HCl (5 mM MES was added to solutions at pH 6.0 and lower). Pipette electrodes were filled with an intracellular solution containing (in mM): 135 KCl, 4 MgATP, 0.3 Na2GTP, 10 EGTA, and 20 HEPES, pH 7.2, 290 mOsm/L.
(§3) All recordings were performed at room temperature using an Axopatch 200B amplifier and pClamp 11 software (Molecular Devices). Currents were measured by whole-cell patch clamp, digitized at 10 kHz and lowpass filtered at 2 kHz. Series resistance was 75% compensated. Responses were elicited by rapid perfusion of acidic solutions using the SF-77B Fast-Step Perfusion device (Warner Instruments) for 40 ms once every 30 s (unless indicated otherwise) and recorded till steady state was reached. The holding potential was 0 mV unless indicated otherwise.
(§4) Baseline values (i.e., current amplitudes at the conditioning pH) were subtracted to obtain responses evoked by the test pH. Responses were normalized for each cell before averaging (see figure legends for more detail on normalization for each type of experiment). Concentration–response data were fitted to a logistic function of the form: R = (A1–A2)/(1 + (C/C0)^h)+A2, where R is the normalized response, C is either pH or compound concentration, C0 is the pH/concentration at which half-maximal response occurs (pH50 or IC50), h is the Hill coefficient, and A1 and A2 are constants. Kinetic parameters were obtained by fitting the data with either a single or double exponential function. Fitted data are shown as solid, dashed, or dotted curves.

rat ASIC1a [2] = molecular target: T1, rat ASIC1a; test: pH dependence of steady-state desensitization (whole-cell patch clamp); assay type: cell-based; conditions: 10 nM PcTx1
Description: as §1, §2, §3, §4

Compound: N=C(N)NC(=O)c1nc(Cl)c(N)nc1N [amiloride, reference compound]
- block of pH 6.0-induced current (rat ASIC1a [1]; 0 mV): 62.3 ± 0.7%
- block of pH 6.0-induced current (rat ASIC1a [1]; −80 mV): 86.8 ± 1.2%

Compound: PcTx1 [reference compound]
- pH50 of steady-state desensitization (rat ASIC1a [2]): 7.81 ± 0.02
